According to the kinase profiling compilation of Christmann-Franck et al. (2016):

How the values were obtained:
Assay in all cases: radiometric filter-binding kinase assay
HIPK3 (human) = HIPK3 (human) (UniProt Q9H422); conditions: compound 100.0 µM; ATP 20 µM
ABL1 (human) = ABL1 (human) (UniProt P00519); conditions: compound 100.0 µM; ATP 5 µM
MAPK11 (human) = MAPK11 (human) (UniProt Q15759); conditions: compound 100.0 µM; ATP 20 µM
FLT1 (human) = FLT1 (human) (UniProt P17948); conditions: compound 100.0 µM; ATP 20 µM
PLK1 (human) = PLK1 (human) (UniProt P53350); conditions: compound 100.0 µM; ATP 5 µM
BRSK2 (human) = BRSK2 (human) (UniProt Q8IWQ3); conditions: compound 100.0 µM; ATP 50 µM
EPHA4 (human) = EPHA4 (human) (UniProt P54764); conditions: compound 100.0 µM; ATP 50 µM
Sequence of EPHA4 (human) (P54764 whole entry, looked up): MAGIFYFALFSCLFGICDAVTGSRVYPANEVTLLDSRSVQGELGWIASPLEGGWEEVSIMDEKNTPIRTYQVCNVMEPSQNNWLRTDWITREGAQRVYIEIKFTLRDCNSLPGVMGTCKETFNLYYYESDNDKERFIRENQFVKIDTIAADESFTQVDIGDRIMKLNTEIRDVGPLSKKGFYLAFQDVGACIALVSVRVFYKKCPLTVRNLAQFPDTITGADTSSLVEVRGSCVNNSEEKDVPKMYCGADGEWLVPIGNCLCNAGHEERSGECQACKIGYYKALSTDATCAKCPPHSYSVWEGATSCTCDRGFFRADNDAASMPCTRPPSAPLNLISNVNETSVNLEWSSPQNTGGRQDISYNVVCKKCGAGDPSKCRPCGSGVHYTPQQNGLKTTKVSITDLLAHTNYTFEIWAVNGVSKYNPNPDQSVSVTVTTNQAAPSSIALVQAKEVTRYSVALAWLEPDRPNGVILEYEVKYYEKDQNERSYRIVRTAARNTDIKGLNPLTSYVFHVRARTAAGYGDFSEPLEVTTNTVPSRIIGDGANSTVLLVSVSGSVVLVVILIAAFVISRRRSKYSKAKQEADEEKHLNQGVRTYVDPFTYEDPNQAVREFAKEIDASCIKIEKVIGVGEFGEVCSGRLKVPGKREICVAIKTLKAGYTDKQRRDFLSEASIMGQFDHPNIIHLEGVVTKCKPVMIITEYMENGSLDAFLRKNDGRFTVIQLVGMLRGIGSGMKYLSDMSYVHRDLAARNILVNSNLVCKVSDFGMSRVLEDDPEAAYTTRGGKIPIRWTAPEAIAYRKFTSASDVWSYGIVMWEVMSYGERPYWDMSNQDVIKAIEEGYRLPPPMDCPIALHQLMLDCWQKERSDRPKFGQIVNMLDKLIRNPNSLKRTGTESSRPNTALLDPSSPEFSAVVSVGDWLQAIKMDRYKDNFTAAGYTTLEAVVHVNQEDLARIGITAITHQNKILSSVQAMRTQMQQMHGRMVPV

TBK1 (human) = TBK1 (human) (UniProt Q9UHD2); conditions: compound 100.0 µM; ATP 50 µM
AURKA (human) = AURKA (human) (UniProt O14965); conditions: compound 100.0 µM; ATP 5 µM
PHKG1 (human) = PHKG1 (human) (UniProt Q16816); conditions: compound 100.0 µM; ATP 50 µM
IKBKE (human) = IKBKE (human) (UniProt Q14164); conditions: compound 100.0 µM; ATP 50 µM
MELK (human) = MELK (human) (UniProt Q14680); conditions: compound 100.0 µM; ATP 50 µM
TEK (human) = TEK (human) (UniProt Q02763); conditions: compound 100.0 µM; ATP 20 µM
NEK2 (human) = NEK2 (human) (UniProt P51955); conditions: compound 100.0 µM; ATP 50 µM
LCK (mouse) = conditions: compound 100.0 µM; ATP 50 µM; accession and sequence are those of the human protein
NUAK1 (human) = NUAK1 (human) (UniProt O60285); conditions: compound 100.0 µM; ATP 20 µM
CHEK2 (human) = CHEK2 (human) (UniProt O96017); conditions: compound 100.0 µM; ATP 20 µM
ZAP70 (human) = ZAP70 (human) (UniProt P43403); conditions: compound 100.0 µM; ATP 5 µM
DYRK2 (human) = DYRK2 (human) (UniProt Q92630); conditions: compound 100.0 µM; ATP 50 µM
RPS6KA3 KD1 KD2 (human) = RPS6KA3 KD1 KD2 (human) (UniProt P51812); conditions: compound 100.0 µM; ATP 50 µM
PRKCG (human) = PRKCG (human) (UniProt P05129); conditions: compound 100.0 µM; ATP 20 µM
EEF2K (human) = EEF2K (human) (UniProt O00418); conditions: compound 100.0 µM; ATP 5 µM
TAOK1 (human) = TAOK1 (human) (UniProt Q7L7X3); conditions: compound 100.0 µM; ATP 20 µM
Sequence of TAOK1 (human) (Q7L7X3 whole entry, looked up): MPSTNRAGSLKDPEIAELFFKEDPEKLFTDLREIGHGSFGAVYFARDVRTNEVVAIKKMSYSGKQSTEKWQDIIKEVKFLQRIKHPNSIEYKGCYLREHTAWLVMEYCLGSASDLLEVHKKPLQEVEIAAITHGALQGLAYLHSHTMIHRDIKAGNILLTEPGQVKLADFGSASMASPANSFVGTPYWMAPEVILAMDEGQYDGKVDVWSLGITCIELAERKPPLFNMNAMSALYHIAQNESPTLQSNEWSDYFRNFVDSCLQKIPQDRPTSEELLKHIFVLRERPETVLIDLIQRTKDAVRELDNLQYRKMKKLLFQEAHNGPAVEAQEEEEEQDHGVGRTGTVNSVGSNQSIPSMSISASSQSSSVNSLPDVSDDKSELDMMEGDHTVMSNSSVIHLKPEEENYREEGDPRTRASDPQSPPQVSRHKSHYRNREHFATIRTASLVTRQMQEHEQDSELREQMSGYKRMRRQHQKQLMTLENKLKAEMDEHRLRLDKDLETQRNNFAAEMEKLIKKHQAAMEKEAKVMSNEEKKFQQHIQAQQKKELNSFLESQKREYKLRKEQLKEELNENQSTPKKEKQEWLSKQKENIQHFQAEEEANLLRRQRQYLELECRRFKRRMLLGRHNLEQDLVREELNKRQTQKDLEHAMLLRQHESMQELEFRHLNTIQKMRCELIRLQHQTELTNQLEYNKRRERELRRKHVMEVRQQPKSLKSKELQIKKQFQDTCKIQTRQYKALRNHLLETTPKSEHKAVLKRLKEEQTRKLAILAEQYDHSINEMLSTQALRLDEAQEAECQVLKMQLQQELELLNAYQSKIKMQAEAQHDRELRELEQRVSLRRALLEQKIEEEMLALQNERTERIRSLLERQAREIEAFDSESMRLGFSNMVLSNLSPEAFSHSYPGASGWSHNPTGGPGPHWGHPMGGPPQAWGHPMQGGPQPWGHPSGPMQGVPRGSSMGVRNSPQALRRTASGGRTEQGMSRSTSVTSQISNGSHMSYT

CaMK1 (human) = CaMK1 (human) (UniProt Q14012); conditions: compound 100.0 µM; ATP 50 µM
Sequence of CaMK1 (human) (Q14012 whole entry, looked up): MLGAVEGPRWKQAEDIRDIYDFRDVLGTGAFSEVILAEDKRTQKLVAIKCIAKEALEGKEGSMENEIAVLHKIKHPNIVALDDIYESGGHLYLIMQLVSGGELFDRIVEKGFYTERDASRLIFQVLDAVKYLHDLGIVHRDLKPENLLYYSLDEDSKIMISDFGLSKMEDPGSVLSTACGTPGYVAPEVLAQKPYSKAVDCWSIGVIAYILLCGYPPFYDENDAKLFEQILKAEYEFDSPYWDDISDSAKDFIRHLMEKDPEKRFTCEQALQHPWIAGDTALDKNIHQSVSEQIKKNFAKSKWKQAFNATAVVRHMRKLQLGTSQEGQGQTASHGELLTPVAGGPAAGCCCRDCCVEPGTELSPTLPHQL

EPHB3 (human) = EPHB3 (human) (UniProt P54753); conditions: compound 100.0 µM; ATP 20 µM
MAPK13 (human) = MAPK13 (human) (UniProt O15264); conditions: compound 100.0 µM; ATP 5 µM
MAPK9 (human) = MAPK9 (human) (UniProt P45984); conditions: compound 100.0 µM; ATP 20 µM
Sequence of MAPK9 (human) (P45984 whole entry, looked up): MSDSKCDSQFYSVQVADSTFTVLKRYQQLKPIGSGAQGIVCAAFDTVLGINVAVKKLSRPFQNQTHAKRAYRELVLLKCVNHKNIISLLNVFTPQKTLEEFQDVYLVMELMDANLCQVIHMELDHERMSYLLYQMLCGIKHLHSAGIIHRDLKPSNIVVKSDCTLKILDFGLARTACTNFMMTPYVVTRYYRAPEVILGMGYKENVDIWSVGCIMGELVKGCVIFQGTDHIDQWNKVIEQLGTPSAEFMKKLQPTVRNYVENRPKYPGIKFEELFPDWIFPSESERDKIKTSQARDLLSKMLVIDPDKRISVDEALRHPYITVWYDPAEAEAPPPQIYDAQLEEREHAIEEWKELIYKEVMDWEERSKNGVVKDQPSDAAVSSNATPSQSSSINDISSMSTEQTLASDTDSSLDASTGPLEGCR

PAK6 (human) = PAK6 (human) (UniProt Q9NQU5); conditions: compound 100.0 µM; ATP 20 µM
CDK2 CCNA2 (human) = CDK2 CCNA2 (human) (UniProt P20248+P24941); conditions: compound 100.0 µM; ATP 20 µM
[1] = biological target: STK11 CAB39 STRADA (human) (UniProt Q9Y376+Q7RTN6+Q15831); conditions: compound 100.0 µM; ATP 20 µM
PAK7 (human) = PAK7 (human) (UniProt Q9P286); conditions: compound 100.0 µM; ATP 20 µM
SRPK1 (human) = SRPK1 (human) (UniProt Q96SB4); conditions: compound 100.0 µM; ATP 50 µM
PKN2 (human) = PKN2 (human) (UniProt Q16513); conditions: compound 100.0 µM; ATP 5 µM
PRKCA (human) = PRKCA (human) (UniProt P17252); conditions: compound 100.0 µM; ATP 20 µM
MST4 (human) = MST4 (human) (UniProt Q9P289); conditions: compound 100.0 µM; ATP 20 µM
EPHB4 (human) = EPHB4 (human) (UniProt P54760); conditions: compound 100.0 µM; ATP 5 µM
MAPK10 (human) = MAPK10 (human) (UniProt P53779); conditions: compound 100.0 µM; ATP 20 µM
[2] = system: SGK1 (human), O00141 [S422D]; conditions: compound 100.0 µM; ATP 20 µM
[3] = system: RPS6KB1 (human), P23443 [T412E]; conditions: compound 100.0 µM; ATP 20 µM

Sequence of HIPK3 (human) (Q9H422 whole entry, looked up): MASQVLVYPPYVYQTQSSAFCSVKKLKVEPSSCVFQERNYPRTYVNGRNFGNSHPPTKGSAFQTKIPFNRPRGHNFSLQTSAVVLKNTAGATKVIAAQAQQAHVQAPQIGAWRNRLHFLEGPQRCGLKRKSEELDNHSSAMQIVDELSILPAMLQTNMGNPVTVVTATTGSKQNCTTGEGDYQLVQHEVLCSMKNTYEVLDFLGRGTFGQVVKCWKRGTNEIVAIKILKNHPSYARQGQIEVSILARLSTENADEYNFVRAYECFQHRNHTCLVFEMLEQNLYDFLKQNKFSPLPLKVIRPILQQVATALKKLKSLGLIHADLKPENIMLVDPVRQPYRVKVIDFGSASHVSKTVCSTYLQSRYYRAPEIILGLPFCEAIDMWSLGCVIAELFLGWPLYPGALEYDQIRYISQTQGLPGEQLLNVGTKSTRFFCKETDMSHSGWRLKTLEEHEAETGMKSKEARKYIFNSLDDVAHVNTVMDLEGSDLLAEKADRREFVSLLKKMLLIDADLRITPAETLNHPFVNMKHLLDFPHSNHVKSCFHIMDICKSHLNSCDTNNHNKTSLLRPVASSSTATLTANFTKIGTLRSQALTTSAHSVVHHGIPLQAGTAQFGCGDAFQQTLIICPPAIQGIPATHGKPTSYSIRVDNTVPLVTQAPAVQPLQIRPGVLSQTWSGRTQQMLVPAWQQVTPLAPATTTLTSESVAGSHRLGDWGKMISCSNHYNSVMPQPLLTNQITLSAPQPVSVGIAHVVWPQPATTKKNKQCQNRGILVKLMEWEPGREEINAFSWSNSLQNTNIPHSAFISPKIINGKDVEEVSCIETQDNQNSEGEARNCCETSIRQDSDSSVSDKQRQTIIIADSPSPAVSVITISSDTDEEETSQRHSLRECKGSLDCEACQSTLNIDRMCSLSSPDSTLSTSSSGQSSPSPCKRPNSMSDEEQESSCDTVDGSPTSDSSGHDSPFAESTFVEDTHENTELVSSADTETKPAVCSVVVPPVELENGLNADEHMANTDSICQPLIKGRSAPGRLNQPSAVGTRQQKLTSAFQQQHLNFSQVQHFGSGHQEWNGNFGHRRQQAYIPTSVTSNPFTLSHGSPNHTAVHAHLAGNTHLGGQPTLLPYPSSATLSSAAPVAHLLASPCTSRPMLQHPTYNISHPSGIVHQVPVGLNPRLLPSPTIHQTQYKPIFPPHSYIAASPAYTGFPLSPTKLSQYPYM
Sequence of MAPK11 (human) (Q15759 whole entry, looked up): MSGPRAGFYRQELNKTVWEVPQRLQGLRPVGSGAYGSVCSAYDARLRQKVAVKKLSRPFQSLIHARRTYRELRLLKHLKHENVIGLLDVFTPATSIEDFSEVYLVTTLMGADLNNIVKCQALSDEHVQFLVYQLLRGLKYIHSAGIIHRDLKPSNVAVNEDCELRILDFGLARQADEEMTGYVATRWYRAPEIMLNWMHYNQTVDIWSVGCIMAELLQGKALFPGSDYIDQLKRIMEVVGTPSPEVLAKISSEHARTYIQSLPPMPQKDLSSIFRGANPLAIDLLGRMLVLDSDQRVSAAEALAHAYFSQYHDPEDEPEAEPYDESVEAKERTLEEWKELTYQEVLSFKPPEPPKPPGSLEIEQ

inhibition (HIPK3 (human)) [%] | inhibition (ABL1 (human)) [%] | inhibition (MAPK11 (human)) [%] | inhibition (FLT1 (human)) [%] | inhibition (PLK1 (human)) [%] | inhibition (BRSK2 (human)) [%] | inhibition (EPHA4 (human)) [%] | inhibition (TBK1 (human)) [%] | inhibition (AURKA (human)) [%] | inhibition (PHKG1 (human)) [%] | inhibition (IKBKE (human)) [%] | inhibition (MELK (human)) [%] | inhibition (TEK (human)) [%] | inhibition (NEK2 (human)) [%] | inhibition (LCK (mouse)) [%] | inhibition (NUAK1 (human)) [%] | inhibition (CHEK2 (human)) [%] | inhibition (ZAP70 (human)) [%] | inhibition (DYRK2 (human)) [%] | inhibition (RPS6KA3 KD1 KD2 (human)) [%] | Structure (SMILES) | other results
0 | 15 | 15 | 74 | 0 | 30 | 0 | 17 | 21 | 9 | 36 | 25 | 0 | 2 | 40 | 0 | 34 | 0 | 53 | 39 | O=C(c1cccc(-c2cc3c(=O)[nH]cnc3s2)c1)N1CCOCC1 | inhibition (PRKCG (human)): 16%; inhibition (EEF2K (human)): 39%; inhibition (TAOK1 (human)): 3%; inhibition (CaMK1 (human)): 75%; inhibition (EPHB3 (human)): 6%; inhibition (MAPK13 (human)): 0%; inhibition (MAPK9 (human)): 0%; inhibition (PAK6 (human)): 0%; inhibition (CDK2 CCNA2 (human)): 10%; inhibition [1]: 0%; inhibition (PAK7 (human)): 0%; inhibition (SRPK1 (human)): 19%; inhibition (PKN2 (human)): 0%; inhibition (PRKCA (human)): 21%; inhibition (MST4 (human)): 12%; inhibition (EPHB4 (human)): 0%; inhibition (MAPK10 (human)): 7%; inhibition [2]: 14%; inhibition [3]: 34%
7 | 14 | 20 | 22 | 8 | 18 | 38 | 21 | 12 | 41 | 28 | 8 | 6 | 38 | 37 | 28 | 13 | 0 | 21 | 42 | Cc1cccc(C)c1-c1cn2nc(N)nc2cn1 | inhibition (PRKCG (human)): 6%; inhibition (EEF2K (human)): 13%; inhibition (TAOK1 (human)): 12%; inhibition (CaMK1 (human)): 52%; inhibition (EPHB3 (human)): 35%; inhibition (MAPK13 (human)): 15%; inhibition (MAPK9 (human)): 0%; inhibition (PAK6 (human)): 11%; inhibition (CDK2 CCNA2 (human)): 17%; inhibition [1]: 0%; inhibition (PAK7 (human)): 13%; inhibition (SRPK1 (human)): 31%; inhibition (PKN2 (human)): 93%; inhibition (PRKCA (human)): 9%; inhibition (MST4 (human)): 21%; inhibition (EPHB4 (human)): 14%; inhibition (MAPK10 (human)): 17%; inhibition [2]: 19%; inhibition [3]: 8%
0 | 3 | 23 | 39 | 8 | 24 | 16 | 6 | 17 | 8 | 22 | 1 | 0 | 29 | 23 | 6 | 19 | 0 | 37 | 25 | O=c1cc(-c2ccccc2F)nc2[nH]ccn12 | inhibition (PRKCG (human)): 7%; inhibition (EEF2K (human)): 7%; inhibition (TAOK1 (human)): 3%; inhibition (CaMK1 (human)): 9%; inhibition (EPHB3 (human)): 0%; inhibition (MAPK13 (human)): 0%; inhibition (MAPK9 (human)): 10%; inhibition (PAK6 (human)): 3%; inhibition (CDK2 CCNA2 (human)): 21%; inhibition [1]: 6%; inhibition (PAK7 (human)): 0%; inhibition (SRPK1 (human)): 0%; inhibition (PKN2 (human)): 2%; inhibition (PRKCA (human)): 2%; inhibition (MST4 (human)): 13%; inhibition (EPHB4 (human)): 6%; inhibition (MAPK10 (human)): 0%; inhibition [2]: 18%; inhibition [3]: 8%
